Drawing on patent US11001570B2, “6-amino-quinolinone compounds and derivatives as BCL6 inhibitors” (Boehringer Ingelheim International GmbH, priority 2016, dated 2021), this text covers IC50 for 43 molecules.

For the experiment, the target named is T1, BCL6::BCOR (Homo sapiens, UniProt P41182, C67R/C84N/C8Q).
T1 construct: BCL6 (amino acids 5 to 129, with the following changes to the natural protein); made in house; host or cells: E. coli
Kind of experiment: BCL6::BCOR ULight TR-FRET assay. It is filed as binding. The method in brief: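 Biotin-Avi BCL6 (aa 5–129, C8Q/C67R/C84N; E. coli), 1 nM, preincubated 30 min RT with compound (11-point fivefold series, top 100 μM) in HEPES pH 7.3 buffer; then 100 nM ULight-BCOR peptide plus 0.75 nM streptavidin-Eu added, 240 min RT. TR-FRET read, normalized to DMSO controls with/without BCL6.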

The term IC50 denotes the point on the concentration scale where inhibition reaches its midpoint. A low value points to inhibition by little substance. In the case of `CNC(=O)COc1cc2cc(Nc3nc(N4CCCC(CCCCN5CCCC5)C4)ncc3Cl)ccc2n(C)c1=O` (stereo not shown) [Compound I-123], half-maximal inhibition (IC50) was put at 7 nM.

Regarding `CNC(=O)COc1cc2cc(Nc3nc(N4CCC5CN(Cc6ccccc6)CC54)ncc3Cl)ccc2n(C)c1=O` (stereo not shown) [Compound I-125], the IC50 came to 10 nM.

Molecule `CCN(CC)CCCCC1CCCN(c2ncc(Cl)c(Nc3ccc4c(c3)cc(OCC(=O)NC)c(=O)n4C)n2)C1` (stereo not shown) [Compound I-126] yielded an IC50 of 7 nM.

With `CNC(=O)COc1cc2cc(Nc3nc(N4CCCC(CN5CCCCC5)C4)ncc3Cl)ccc2n(C)c1=O` (stereo not shown) [Compound I-127], the IC50 came to 9 nM.

For the molecule `CCCN(CCC)CCC1CCN(c2ncc(Cl)c(Nc3ccc4c(c3)cc(OCC(=O)NC)c(=O)n4C)n2)CC1` [Compound I-128], the midpoint of inhibition, the IC50, lay at 7 nM.

`C[C@@H]1C[C@H](C)CN(c2ncc(Cl)c(Nc3ccc4c(c3)cc(OCC(=O)O)c(=O)n4C)n2)C1` [Compound I-131, 2-{[6-({5-chloro-2-[cis-3,5-dimethylpiperidin-1-yl]pyrimidin-4-yl}amino)-1-methyl-2-oxo-1,2-dihydroquinolin-3-yl]oxy}-acetic acid] came in with an IC50 of 5 nM.

`Cn1c(=O)c(OCC(=O)O)cc2cc(Nc3nc(N4CCC(F)CC4)ncc3Cl)ccc21` [Compound I-132, 2-[(6-{[5-chloro-2-(4-fluoropiperidin-1-yl)pyrimidin-4-yl]amino}-1-methyl-2-oxo-1,2-dihydro-quinolin-3-yl)oxy]acetic acid] registered an IC50 of 5 nM.

On to `C[C@@H]1C[C@H](C)CN(c2ncc(Cl)c(Nc3ccc4c(c3)cc(OCC(=O)N(C)C)c(=O)n4C)n2)C1` [Compound I-133, 2-{[6-({5-chloro-2-[cis-3,5-dimethyl-piperidin-1-yl]pyrimidin-4-yl}amino)-1-methyl-2-oxo-1,2-dihydroquinolin-3-yl]oxy}-N,N-dimethylacetamide], for which the IC50 came to 29 nM.

In the case of `COCCN(C)C(=O)COc1cc2cc(Nc3nc(N4C[C@H](C)C[C@H](C)C4)ncc3Cl)ccc2n(C)c1=O` [Compound I-134], the midpoint of inhibition, the IC50, lay at 77 nM.

In the case of `C[C@@H]1C[C@H](C)CN(c2ncc(Cl)c(Nc3ccc4c(c3)cc(OCC(=O)NCCO)c(=O)n4C)n2)C1` [Compound I-135], the IC50 came to 16 nM.

For `C[C@@H]1C[C@H](C)CN(c2ncc(Cl)c(Nc3ccc4c(c3)cc(OCC(=O)NCC(O)C(F)(F)F)c(=O)n4C)n2)C1` (stereo partly shown) [Compound I-136], the IC50 amounted to 269 nM.

`CCNC(=O)COc1cc2cc(Nc3nc(N4C[C@H](C)C[C@H](C)C4)ncc3Cl)ccc2n(C)c1=O` [Compound I-137]: the IC50 came to 21 nM.

`C[C@@H]1C[C@H](C)CN(c2ncc(Cl)c(Nc3ccc4c(c3)cc(OCC(=O)NCCN(C)C)c(=O)n4C)n2)C1` [Compound I-138] gave an IC50 of 529 nM.

In turn, `C[C@@H]1C[C@H](C)CN(c2ncc(Cl)c(Nc3ccc4c(c3)cc(OCC(=O)OCCN(C)C)c(=O)n4C)n2)C1` [Compound I-139, 2-(dimethylamino)ethyl 2-{[6-({5-chloro-2-[cis-3,5-dimethylpiperidin-1-yl]pyrimidin-4-yl}amino)-1-methyl-2-oxo-1,2-dihydroquinolin-3-yl]oxy}acetate] came in with an IC50 of 6 nM.

As to `CC(CN(C)C)OC(=O)COc1cc2cc(Nc3nc(N4C[C@H](C)C[C@H](C)C4)ncc3Cl)ccc2n(C)c1=O` (stereo partly shown) [Compound I-140], the IC50 stood at 5 nM.

Regarding `C[C@@H]1C[C@H](C)CN(c2ncc(Cl)c(Nc3ccc4c(c3)cc(OCC(=O)OCCCN(C)C)c(=O)n4C)n2)C1` [Compound I-141], the IC50 was 9 nM.

Regarding `C[C@@H]1C[C@H](C)CN(c2ncc(Cl)c(Nc3ccc4c(c3)cc(OCC(=O)OCCN3CCOCC3)c(=O)n4C)n2)C1` [Compound I-142], it took 5 nM to reach half-maximal inhibition (IC50).

Molecule `CNC(=O)COc1cc2cc(Nc3nc(N4CCC(C(=O)N(C)CCOCCN)CC4)ncc3Cl)ccc2n(C)c1=O` [Compound I-143] showed an IC50 of 6 nM.

The molecule `CNC(=O)COc1cc2cc(Nc3nc(N4CCC(C(=O)NCCOCCN)CC4)ncc3Cl)ccc2n(C)c1=O` [Compound I-144] registered an IC50 of 22 nM.

Molecule `CNC(=O)COc1cc2cc(Nc3nc(N4CCC(C(=O)NCCCCCN)CC4)ncc3Cl)ccc2n(C)c1=O` [Compound I-145] yielded an IC50 of 6 nM.

`CNC(=O)COc1cc2cc(Nc3nc(N4CCC(C(=O)NCCCCCCN)CC4)ncc3Cl)ccc2n(C)c1=O` [Compound I-146] yielded a half-inhibitory concentration (IC50) of 6 nM.

The molecule `CNC(=O)COc1cc2cc(Nc3nc(N4CCC(C(=O)NCCOCCOCCN)CC4)ncc3Cl)ccc2n(C)c1=O` [Compound I-147] came in with an IC50 of 5 nM.

`CNC(=O)COc1cc2cc(Nc3nc(N4CCC(C(=O)N(C)C)CC4)ncc3Cl)cc(OC)c2n(C)c1=O` [Compound I-148, 1-[5-chloro-4-({8-methoxy-1-methyl-3-[(methylcarbamoyl)methoxy]-2-oxo-1,2-dihydroquinolin-6-yl}amino)pyrimidin-2-yl]-N,N-dimethylpiperidine-4-carboxamide] came in with an IC50 of 3 nM.

Consider `CNC(=O)COc1cc2cc(Nc3nc(-n4nc(C)cc4C)ncc3Cl)ccc2n(C)c1=O` [Compound I-149, 2-[(6-{[5-chloro-2-(3,5-dimethyl-1H-pyrazol-1-yl)pyrimidin-4-yl]amino}-1-methyl-2-oxo-1,2-dihydroquinolin-3-yl)oxy]-N-methylacetamide], for which the midpoint of inhibition, the IC50, lay at 12 nM.

In turn, `C[C@@H]1C[C@H](C)CN(c2ncc(Cl)c(Nc3ccc4c(c3)cc(SCC(=O)O)c(=O)n4C)n2)C1` [Compound I-150, 2-{[6-({5-chloro-2-[cis-3,5-dimethylpiperidin-1-yl]pyrimidin-4-yl}amino)-1-methyl-2-oxo-1,2-dihydroquinolin-3-yl]sulfanyl}acetic acid] came in with a 50% inhibitory concentration (IC50) of 85 nM.

For the molecule `CNC(=O)COc1cc2cc(Nc3nc(N4CCC(C(=O)N(C)C)CC4)ncc3Cl)ccc2n(CCCO)c1=O` [Compound I-151, 1-(5-chloro-4-{[1-(3-hydroxypropyl)-3-[(methyl-carbamoyl)methoxy]-2-oxo-1,2-dihydroquinolin-6-yl]amino}pyrimidin-2-yl)-N,N-dimethyl-piperidine-4-carboxamide], the IC50 turned out to be 6 nM.

As to `CN(C)C(=O)C1CCN(c2ncc(Cl)c(Nc3ccc4c(c3)cc(OCC(=O)O)c(=O)n4C)n2)CC1` [Compound I-152, 2-{[6-({5-chloro-2-[4-(dimethylcarbamoyl)piperidin-1-yl]pyrimidin-4-yl}amino)-1-methyl-2-oxo-1,2-dihydroquinolin-3-yl]oxy}acetic acid], half-maximal inhibition (IC50) required 5 nM.

Consider `Cc1cc(C)n(-c2ncc(Cl)c(Nc3ccc4c(c3)cc(OCC(=O)O)c(=O)n4C)n2)n1` [Compound I-153, 2-[(6-{[5-chloro-2-(3,5-dimethyl-1H-pyrazol-1-yl)pyrimidin-4-yl]amino}-1-methyl-2-oxo-1,2-dihydroquinolin-3-yl)oxy]acetic acid], for which the IC50 was 11 nM.

Take `CNC(=O)COc1cc2cc(Nc3nc(N4C[C@H](C)C[C@H](C)C4)ncc3Cl)cnc2n(C)c1=O` [Compound I-155]: the IC50 worked out at 9 nM.

`CNC(=O)COc1cc2cc(Nc3nc(N4CCC(C(=O)N(C)C)CC4)ncc3Cl)c(F)cc2n(C)c1=O` [Compound I-156]: it took 19 nM to reach half-maximal inhibition (IC50).

`CNC(=O)COc1cc2cc(Nc3nc(N4CCC(C(=O)N(C)C)CC4)ncc3Cl)ccc2n(C)c1=O` [Compound I-157] displayed an IC50 of 5 nM.

The molecule `CNC(=O)COc1cc2cc(Nc3nc(N4CCC(C(=O)N(C)C)CC4)ncc3Cl)ccc2n(C(C)C)c1=O` [Compound I-158] came in with an IC50 of 6 nM.

`CNC(=O)COc1cc2cc(Nc3nc(N4C[C@H](C)C[C@H](C)C4)ncc3Cl)ccc2n(CCN(C)C)c1=O` [Compound I-159] returned an IC50 of 85 nM.

Consider `CCn1c(=O)c(OCC(=O)NC)cc2cc(Nc3nc(-n4nc(C)cc4C)ncc3Cl)ccc21` [Compound I-160], for which the 50% inhibitory concentration (IC50) was 7 nM.

Molecule `CCn1c(=O)c(OCC(=O)NC)cc2cc(Nc3nc(N4CCC(C(=O)N(C)C)CC4)ncc3Cl)ccc21` [Compound I-161] came in with an IC50 of 5 nM.

Take `CNC(=O)[C@@H](C)Oc1cc2cc(Nc3nc(N4CCC(C(=O)N(C)C)CC4)ncc3Cl)ccc2n(C)c1=O` [Compound I-162]: the IC50 was found to be 98 nM.

With `CNC(=O)COc1cc2cc(Nc3nc(N4CCC(C(=O)N(C)C)CC4)ncc3Cl)c(OC)cc2n(C)c1=O` [Compound I-163], inhibition was half-maximal at 60 nM (IC50).

Turning to `CNC(=O)COc1cc2cc(Nc3nc(N4CCC(C(=O)N(C)C)CC4)ncc3Cl)c(Cl)cc2n(C)c1=O` [Compound I-164], half-maximal inhibition (IC50) required 281 nM.

As to `C[C@@H]1C[C@H](C)CN(c2ncc(Cl)c(Nc3ccc4c(c3)cc(/C=C/C(=O)O)c(=O)n4C)n2)C1` [Compound I-165], it took 22 nM to reach half-maximal inhibition (IC50).

`CNC(=O)COc1cc2cc(Nc3nc(-n4nc(C(=O)N5CCN(C)CC5)cc4C)ncc3Cl)ccc2n(C)c1=O` [Compound I-166, 2-{[6-({5-chloro-2-[5-methyl-3-(4-methylpiperazine-1-carbonyl)-1H-pyrazol-1-yl]pyrimidin-4-yl}amino)-1-methyl-2-oxo-1,2-dihydroquinolin-3-yl]oxy}-N-methylacetamide] came in with an IC50 of 16 nM.

In turn, `CNC(=O)COc1cc2cc(Nc3nc(N4CCC[C@@H](C(=O)O)C4)ncc3Cl)ccc2n(C)c1=O` [Compound I-167, (3R)-1-[5-chloro-4-({1-methyl-3-[(methylcarbamoyl)methoxy]-2-oxo-1,2-dihydroquinolin-6-yl}-amino)pyrimidin-2-yl]piperidine-3-carboxylic acid] showed an IC50 of 4 nM.

The molecule `CNC(=O)COc1cc2cc(Nc3nc(N4CCC[C@@H](C(=O)N(C)C)C4)ncc3Cl)ccc2n(C)c1=O` [Compound I-168, (3R)-1-[5-chloro-4-({1-methyl-3-[(methylcarbamoyl)methoxy]-2-oxo-1,2-dihydroquinolin-6-yl}amino)pyrimidin-2-yl]-N,N-dimethylpiperidine-3-carboxamide] yielded an IC50 of 6 nM.

Molecule `CNC(=O)COc1cc2cc(Nc3nc(N4CCC[C@@H](C(=O)N5CCN(C)CC5)C4)ncc3Cl)ccc2n(C)c1=O` [Compound I-169] gave an IC50 of 6 nM.
